Results: patent US9556231B2, “Beta-hairpin peptidomimetics as CXC4 antagonists” (POLYPHOR AG, priority 2011, dated 2017)
Bridge positions count the residues as written; N and C are the ends. Square brackets hold non-standard residues; d marks the D form. Peptide text beside a SMILES is read from it. Lys(iPr) = CC(C)NCCCC[C@H](N)C(=O)O; Orn(iPr) = CC(C)NCCC[C@H](N)C(=O)O; Dab = NCC[C@H](N)C(=O)O

Test: Pharmacokinetic study (PK), i.v., CD-1 mice
Type: in vivo
Conditions: mouse, i.v. 1 mg/kg; for level at 0.083 h / level at 0.25 h / level at 0.5 h / level at 1 h / level at 2 h / level at 3 h / level at 4 h / AUC(0-inf) / Cmax / clearance / half-life / Vd: male, CD-1, in vivo, iv; for level at 0.083 h / level at 0.25 h / level at 0.5 h / level at 1 h / level at 2 h / level at 3 h / level at 4 h: read-out: Calc. Conc. (plasma); for AUC(0-inf) / Cmax / clearance / half-life / Vd: one-compartmental model; for Vd: read-out: Vdis
Method: For the compounds of Ex. 1, Ex. 2, Ex. 3, Ex. 4, Ex. 5 and Ex. 6 pharmacokinetic studies after intravenous (i.v.) administration were performed.
30 grams (±20%) male CD-1 mice obtained from Charles River Laboratories Deutschland GmbH were used. The vehicle, phosphate buffered saline, was added to give a final concentration of 0.5 mg/mL of the compound. The volume was 2 mL/kg and the compound was injected to give a final intravenous dose of 1 mg/kg. Approximately 300-400 μL of blood was removed under light isoflurane anesthesia by cardiac puncture at predetermined time intervals (5, 15, 30 min and 1, 2, 3, 4, hours) and added to heparinized tubes. Plasma was removed from pelleted cells upon centrifugation and frozen at −80° C. prior to HPLC-MS analysis.
Aliquots of 50 μL each of mouse plasma of untreated aminals (“blank” mouse plasma) were spiked with known amounts of the compounds Ex. 1, Ex. 2, Ex. 3, Ex. 4, Ex. 5 and Ex. 6 in order to obtain 10 plasma calibration samples for each compound in the range 1-4000 ng/mL. Aliquots of 50 μL each of mouse plasma from treated animals were used as plasma study samples.
All plasma samples were spiked with an appropriate internal standard and extracted with acetonitrile containing 2% formic acid. Supernatants were evaporated to dryness under nitrogen and the remaining solids reconstituted in water/acetonitrile 95/5 (v/v)+0.2% formic acid.
Extracts were then analyzed by reverse-phase chromatography (Acquity BEH C18, 100×2.1 mm, 1.7 μm column, Waters for Ex. 1 and Acquity HSS C18 SB, 100×2.1 mm, 1.8 μm column, Waters for Ex. 2, Ex. 3, Ex. 4, Ex. 5 and Ex. 6), using the following conditions: Ex. 1, mobile phases: (A) water/acetonitrile 95/5 (v/v)+0.1% formic acid, (B) acetonitrile/water 95/5 (v/v)+0.1% formic acid, gradient: 1% (B) 0-0.1 min, 15% (B) 0.1-2.5 min for Ex. 1 and 1% (B) 0-0.1 min, 40% (B) 0.1-2.5 min for Ex. 2, Ex. 3, Ex. 4, Ex. 5 and Ex. 6. The detection and quantification was performed by mass spectrometry, with electrospray interface in positive mode and selective fragmentation of analytes (4000 Q Trap mass spectrometer, AB Sciex).
PK parameters were calculated by WinNonLin™ software version 5.3 (Pharsight-A Certara™ Company, Mountain View, Calif. 94041 USA) using a one-compartmental model analysis. PK parameters were determined by least-square fitting of the model to the experimental data.

## COc1ccc(C[C@H]2NC(=O)[C@H](C)NC(=O)[C@H](CO)NC(=O)[C@@H]3CSSC[C@H](NC(=O)[C@H](Cc4ccc(O)cc4)NC(=O)[C@H](CCCNC(=N)N)NC(=O)[C@H](CCCNC(C)C)NC2=O)C(=O)N[C@@H](Cc2ccc(O)cc2)C(=O)N[C@@H](CCC(N)=O)C(=O)N[C@@H](CCCCNC(C)C)C(=O)N2CCC[C@@H]2C(=O)N2CCC[C@H]2C(=O)N[C@@H](Cc2ccc(O)cc2)C(=O)N[C@@H](Cc2c[nH]cn2)C(=O)N[C@@H](C)C(=O)N3)cc1 [Ex. 4, cyclo(-Tyr^1-His^2-Ala^3-Cys^4-Ser^5-Ala^6-^DTyr(Me)^7-Orn(iPr)^8-Arg^9-Tyr^10-Cys^11-Tyr^12-Gln^13-Lys(iPr)^14-^DPro^15-Pro^16-), disulfide bond between Cys^4 and Cys^11] (cyclo(YHACSA[dY](Me)[Orn(iPr)]RYCYQ[Lys(iPr)][dP]P); disulfide 4-11)
  level at 0.083 h: 1620 ng/mL
  level at 0.25 h: 869 ng/mL
  level at 0.5 h: 775 ng/mL
  level at 1 h: 504 ng/mL
  level at 2 h: 159 ng/mL
  level at 3 h: 25 ng/mL
  AUC(0-inf): 1340 ng·h/mL
  Cmax: 1620 ng/mL
  clearance: 12.4 mL/min/kg
  half-life: 36 min
  Vd: 0.607 L/kg
4 h
  level at 4 h: 13 ng/mL

## CC(C)NCCCC[C@@H]1NC(=O)[C@H](CCC(N)=O)NC(=O)[C@H](Cc2ccc(O)cc2)NC(=O)[C@@H]2CSSC[C@H](NC(=O)[C@H](Cc3ccc(O)cc3)NC(=O)[C@H](Cc3c[nH]cn3)NC(=O)[C@H](Cc3ccc(O)cc3)NC(=O)[C@@H]3CCCN3C(=O)[C@H]3CCCN3C1=O)C(=O)N[C@@H](CO)C(=O)N[C@@H](C)C(=O)N1CCC[C@@H]1C(=O)N[C@@H](CCCNC(C)C)C(=O)N[C@@H](CCCNC(=N)N)C(=O)N[C@@H](Cc1ccc(O)cc1)C(=O)N2 [Ex. 1, cyclo(-Tyr^1-His^2-Tyr^3-Cys^4-Ser^5-Ala^6-^DPro^7-Orn(iPr)^8-Arg^9-Tyr^10-Cys^11-Tyr^12-Gln^13-Lys(iPr)^14-^DPro^15-Pro^16-) disulfide bond between Cys^4 and Cys^11] (cyclo(YHYCSA[dP][Orn(iPr)]RYCYQ[Lys(iPr)][dP]P); disulfide 4-11)
  level at 0.083 h: 1720 ng/mL
  level at 0.25 h: 989 ng/mL
  level at 0.5 h: 947 ng/mL
  level at 1 h: 373 ng/mL
  level at 2 h: 129 ng/mL
  level at 3 h: 15 ng/mL
  AUC(0-inf): 1150 ng·h/mL
  Cmax: 1830 ng/mL
  clearance: 14.5 mL/min/kg
  half-life: 24 min
  Vd: 0.547 L/kg

## COc1ccc(C[C@@H]2NC(=O)[C@H](Cc3c[nH]cn3)NC(=O)[C@H](Cc3ccc(O)cc3)NC(=O)[C@@H]3CCCN3C(=O)[C@H]3CCCN3C(=O)[C@H](CCCCNC(C)C)NC(=O)[C@H](CCC(N)=O)NC(=O)[C@H](Cc3ccc(O)cc3)NC(=O)[C@@H]3CSSC[C@H](NC2=O)C(=O)N[C@@H](CO)C(=O)N[C@@H](C)C(=O)N[C@H](Cc2ccc(OC)cc2)C(=O)N[C@@H](CCCNC(C)C)C(=O)N[C@@H](CCCNC(=N)N)C(=O)N[C@@H](Cc2ccc(O)cc2)C(=O)N3)cc1 [Ex. 6, cyclo(-Tyr^1-His^2-Tyr(Me)^3-Cys^4-Ser^5-Ala^6-^DTyr(Me)^7-Orn(iPr)^8-Arg^9-Tyr^10-Cys^11-Tyr^12-Gln^13-Lys(iPr)^14-^DPro^15-Pro^16-), disulfide bond between Cys^4 and Cys^11] (cyclo(YHY(Me)CSA[dY](Me)[Orn(iPr)]RYCYQ[Lys(iPr)][dP]P); disulfide 4-11)
  level at 0.083 h: 686 ng/mL
  level at 0.25 h: 435 ng/mL
  level at 0.5 h: 215 ng/mL
  level at 1 h: 75 ng/mL
  level at 2 h: 36 ng/mL
  level at 3 h: 13 ng/mL
  AUC(0-inf): 409 ng·h/mL
  Cmax: 686 ng/mL
  clearance: 40.8 mL/min/kg
  half-life: 48 min
  Vd: 2.98 L/kg
4 h
  Calc. Conc. (plasma): 7 ng/mL

## CC(C)NCCCC[C@@H]1NC(=O)[C@H](CCC(N)=O)NC(=O)[C@H](Cc2ccc(O)cc2)NC(=O)[C@@H]2CSSC[C@H](NC(=O)[C@H](C)NC(=O)[C@H](Cc3c[nH]cn3)NC(=O)[C@H](Cc3ccc(O)cc3)NC(=O)[C@@H]3CCCN3C(=O)[C@H]3CCCN3C1=O)C(=O)N[C@@H](CO)C(=O)N[C@@H](C)C(=O)N[C@H](Cc1ccc(O)cc1)C(=O)N[C@@H](CCN)C(=O)N[C@@H](CCCNC(=N)N)C(=O)N[C@@H](Cc1ccc(O)cc1)C(=O)N2 [Ex. 3, cyclo(-Tyr^1-His^2-Ala^3-Cys^4-Ser^5-Ala^6-^DTyr^7-Dab^8-Arg^9-Tyr^10-Cys^11-Tyr^12-Gln^13-Lys(iPr)^14-^DPro^15-Pro^16-), disulfide bond between Cys^4 and Cys^11] (cyclo(YHACSA[dY][Dab]RYCYQ[Lys(iPr)][dP]P); disulfide 4-11)
  level at 0.083 h: 1170 ng/mL
  level at 0.25 h: 999 ng/mL
  level at 0.5 h: 442 ng/mL
  level at 1 h: 402 ng/mL
  level at 2 h: 136 ng/mL
  level at 3 h: 26 ng/mL
  AUC(0-inf): 898 ng·h/mL
  Cmax: 1310 ng/mL
  clearance: 18.6 mL/min/kg
  half-life: 30 min
  Vd: 0.762 L/kg
4 h
  level at 4 h: 12 ng/mL

## CC(C)NCCCC[C@@H]1NC(=O)[C@H](CCC(N)=O)NC(=O)[C@H](Cc2ccc(O)cc2)NC(=O)[C@@H]2CSSC[C@H](NC(=O)[C@H](Cc3ccc(O)cc3)NC(=O)[C@H](Cc3c[nH]cn3)NC(=O)[C@H](Cc3ccc(O)cc3)NC(=O)[C@@H]3CCCN3C(=O)[C@H]3CCCN3C1=O)C(=O)N[C@@H](CO)C(=O)N[C@@H](C)C(=O)N[C@H](Cc1ccc(O)cc1)C(=O)N[C@@H](CCCNC(C)C)C(=O)N[C@@H](CCCNC(=N)N)C(=O)N[C@@H](Cc1ccc(O)cc1)C(=O)N2 [Ex. 5, cyclo(-Tyr^1-His^2-Tyr^3-Cys^4-Ser^5-Ala^6-^DTyr^7-Orn(iPr)^8-Arg^9-Tyr^10-Cys^11-Tyr^12-Gln^13-Lys(iPr)^14-^DPro^15-Pro^16-), disulfide bond between Cys^4 and Cys^11] (cyclo(YHYCSA[dY][Orn(iPr)]RYCYQ[Lys(iPr)][dP]P); disulfide 4-11)
  level at 0.083 h: 1310 ng/mL
  level at 0.25 h: 984 ng/mL
  level at 0.5 h: 350 ng/mL
  level at 1 h: 503 ng/mL
  level at 2 h: 150 ng/mL
  level at 3 h: 49 ng/mL
  AUC(0-inf): 1200 ng·h/mL
  Cmax: 1310 ng/mL
  clearance: 13.9 mL/min/kg
  half-life: 54 min
  Vd: 1.04 L/kg
4 h
  level at 4 h: 33 ng/mL
